The text below walks through data of patent US4576940A, “Anti-allergic 3-indolecarboxamides” (Yoshitomi Pharmaceutical Industries, Ltd., priority 1983, dated 1986).

The conditions of series [1]: prior art, in words; cited from earlier work.
For series [2] the following is noted: prior art, in words; cited from earlier work. This is another data set of the same source.
The conditions of series [3]: prior art, in words; cited from earlier work. The source holds these as a separate data set.
A further series has as its system histamine induced asthma. Description: Inhibitory effect on histamine induced asthma in guinea pigs. Format: in vivo, guinea pig (female Hartley). The settings on record: Cavia porcellus, po, read-out: Antihistaminic activity (% inhibition). The method, then:
2. Inhibitory effect on histamine induced asthma in guinea pigs
The experiment was performed according to the method of Suyama et al. which is described in Jpn. J. Allergol. 15, 549-556, 1966. Female Hartley guinea pigs weighing 300-400 g were used in groups of 5 or more. One hour after the oral administration of test compound solution, animals were placed in a transparent square box and exposed to a 0.2% histamine hydrochloride (Nakarai Chemicals, Ltd.) saline aerosol using an ultrasonic nebulizer (Nihon Kohden, TUR-3000). Protection was assessed during the exposure period (5 minutes) by the presence or absence of loss of righting due to dyspnea. The effects of test compounds were expressed in terms of percent inhibition.

The next series concerns the target T1, 5-lipoxygenase (Cavia porcellus, UniProt A0A286X958).
T1 construct: Guinea pigs were anesthetized with ethyl ether, and the peripheral blood was collected in heparinized syringes; endogenous in cells; host or cells: guinea pig peripheral blood leukocytes (dextran sedimentation, erythrocytes lysed)
T1 sequence (A0A286X958 1-674): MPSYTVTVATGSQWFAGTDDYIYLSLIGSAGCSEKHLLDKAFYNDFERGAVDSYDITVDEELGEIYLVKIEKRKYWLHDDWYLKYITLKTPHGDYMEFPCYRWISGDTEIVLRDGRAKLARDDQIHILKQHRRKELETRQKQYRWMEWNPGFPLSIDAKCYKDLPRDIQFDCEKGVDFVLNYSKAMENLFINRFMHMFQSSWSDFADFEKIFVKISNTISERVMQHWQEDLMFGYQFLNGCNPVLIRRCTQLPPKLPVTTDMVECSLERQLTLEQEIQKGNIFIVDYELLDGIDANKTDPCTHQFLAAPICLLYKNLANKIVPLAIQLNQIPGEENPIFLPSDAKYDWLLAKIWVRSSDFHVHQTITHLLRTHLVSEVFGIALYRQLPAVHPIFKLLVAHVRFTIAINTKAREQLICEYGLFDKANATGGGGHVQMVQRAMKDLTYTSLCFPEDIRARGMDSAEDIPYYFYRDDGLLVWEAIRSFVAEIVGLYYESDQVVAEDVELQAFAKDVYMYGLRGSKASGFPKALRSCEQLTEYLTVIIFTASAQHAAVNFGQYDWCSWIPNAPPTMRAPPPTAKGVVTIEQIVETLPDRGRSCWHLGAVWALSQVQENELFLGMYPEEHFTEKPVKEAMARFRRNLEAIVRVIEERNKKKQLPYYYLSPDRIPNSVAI
Put plainly: 5-lipoxygenase inhibition (arachidonic acid induced chemiluminescence of peripheral leukocytes in guinea pigs). The class given is cell-based, guinea pig. As for the experimental part:
1. Inhibitory activity on 5-lipoxygenase (Effect of test compounds on arachidonic acid induced chemiluminescence of peripheral leukocytes in guinea pigs)
(1) Isolation of leukocytes and preparation of leukocyte suspension
Guinea pigs were anesthetized with ethyl ether, and the peripheral blood was collected in heparinized syringes (10 U/ml, blood) from the abdominal aorta through a needle.
50 ml of a 6% dextran solution (molecular weight 177,000, Nakarai Chemicals Ltd.) was added to 100 ml of blood. This suspension was gently mixed, and was allowed to sediment for 60 minutes at room temperature. The upper leukocyte-rich suspension was centrifuged at 400×g for 10 minutes at room temperature. Tris-HCl buffer (pH 7.65) containing 5.0 ml of a 0.83% ammonium chloride solution was added to the cell pellet to lyse remaining erythrocytes. This suspension was centrifuged at 150×g for 10 minutes at 4° C. Eagle's MEM (10 ml) containing 10% fetal bovine serum (Flow Laboratories, Inc.) was added to the cell pellet. This suspension was centrifuged under the same conditions. The cell pellet was suspended in an equal volume of phosphate buffered saline (pH 7.4) containing 0.2% glucose and 0.2% bovine serum albumin, and this mixture was centrifuged under the same conditions. The above procedure was performed twice, and the cell pellet was suspended in the above buffer to adjust the leukocyte counts to 5×10^6 cells/ml.
(2) Chemiluminescence assay
Chemiluminescence was measured by the method of Yoshimoto et al. which is described in Biochem. Biophys. Res. Commun. 107, 779-784, 1982. Briefly, 0.3 ml of a leukocyte suspension was preincubated with 5 μl of a test compound solution of phosphate-buffered saline as controls, 0.05 ml of 1 mM luminol (Nakarai Chemicals, Ltd.) and 0.05 ml of 100 μM indomethacin (Sumitomo Chemical Co. Ltd.) After preincubation at 26° C. for 2 minutes, 100 μl of 2 mM arachidonic acid (Sigma) was added to the reaction mixture. Chemiluminescence was recorded continuously by an Aminco Chem-Glow model J4-7441S photometer equipped with a Hitachi model 056 recorder, and the peak height of luminol intensity was measured. The effects of test compounds were expressed as IC50 values (μM).

Another series is described as follows: Acute toxicity in rats. To be noted: rat, in vivo, 14 days observation. As for the experimental part: (§1) 3. Acute toxicity in mice and rats
(§2) The acute toxicity of test compound No. 2 was evaluated in 120 male mice weighing 30-42 g and 120 female mice weighing 23-35 g, and in 56 male rats weighing 150-190 g and 56 female rats weighing 115-150 g by oral and intraperitoneal administration. […] LD50 values were calculated by probit method.

A short description of a further series: Acute toxicity in mice. The settings on record: mouse, in vivo, 14 days observation. As for the experimental part: as §1, §2
The conditions of series [4]: background, in words; cited from earlier work.
Where [5] appears, read: arachidonic acid induced chemiluminescence, guinea pig leukocytes, median inhibition concentration, read-out: 5-lipoxygenase inhibiting activity IC50.

pIC50: −log10 of the molar value. Where a name gives a salt, the structure may show the parent alone. Read-outs that look alike come from different tables or passages of the source.

As for `O=C(NC1CCN(CCc2c[nH]c3ccccc23)CC1)c1c[nH]c2ccccc12` [3-[2-(4-[indole-3-carboxamido]-1-piperidyl)ethyl]indole], the hypotensive effect entry in series [1] is “moderate hypotensive effect”. Further, in series [2], the anti-histaminic activity result is “very weak anti-histaminic activity”. Besides, the anti-inflammatory action result in series [3] is listed as “effective anti-inflammatory action”.
`CN(C)CCOC(c1ccccc1)c1ccccc1` [Comparison B, Diphenhydramine, reference compound]: in the series with histamine induced asthma (1 h), the inhibition in vivo at 5 mg/kg was 20% and the inhibition in vivo at 25 mg/kg was determined as 100%.
`CCCCn1c(C)c(C(=O)NC2CCN(CCc3ccccc3)CC2)c2cc(O)ccc21` [Example 2, 1-butyl-5-hydroxy-2-methyl-N-(1-(2-phenylethyl)-4-piperidyl)indole-3-carboxamide]: the pIC50 (as a rule, the IC50 on a negative log10 scale, so that one unit is a factor of ten) at 5-lipoxygenase is 6.35. For the same molecule, the inhibition in vivo at 0.5 mg/kg in the series with histamine induced asthma (1 h) was 40%. Further, the inhibition in vivo at 2.5 mg/kg with histamine induced asthma (1 h) was found to be 100%. For the same molecule, the LD50 – broadly, the dose expected to kill half of the subjects tested – at 336 h in “Acute toxicity in rats” (ip, female rats) was 1930 mg/kg; in the series “Acute toxicity in rats” (ip, male rats), 1940 mg/kg; in the series “Acute toxicity in rats” (po, female rats), greater than 9000 mg/kg; in the series “Acute toxicity in rats” (po, male rats), greater than 9000 mg/kg; in the series “Acute toxicity in mice” (ip, female mice), 1470 mg/kg; in the series “Acute toxicity in mice” (ip, male mice), 1430 mg/kg. Also, the LD50 at 336 h was greater than 10400 mg/kg in the series “Acute toxicity in mice” (po, female mice) and greater than 12000 mg/kg in “Acute toxicity in mice” (po, male mice).
Turning to `Cc1c(C(=O)NC2CCN(CCc3ccccc3)CC2)c2cc(O)ccc2n1Cc1ccccc1` [Example 4, 1-benzyl-5-hydroxy-2-methyl-N-(1-(2-phenylethyl)-4-piperidyl)indole-3-carboxamide hydrochloride], at 5-lipoxygenase, the negative-log IC50 (pIC50) is 6.07. Further, the inhibition in vivo at 0.5 mg/kg with histamine induced asthma (1 h) stood at 60%.
With `Cc1c(C(=O)NC2CCN(CCc3ccccc3)CC2)c2cc(O)ccc2n1C(C)C` [Example 5, 5-hydroxy-1-isopropyl-2-methyl-N-(1-(2-phenylethyl)-4-piperidyl)indole-3-carboxamide hydrochloride], the inhibition in vivo at 0.5 mg/kg with histamine induced asthma (1 h) is 100%.
As to `Cc1c(C(=O)NC2CCN(CCc3ccccc3)CC2)c2cc(O)ccc2n1CC(C)C` [Example 6, 5-Hydroxy-1-isobutyl-2-methyl-N-(1-(2-phenylethyl)-4-piperidyl)indole-3-carboxamide hydrochloride], in the series on histamine induced asthma (1 h), the inhibition in vivo at 0.5 mg/kg came out at 0% and the inhibition in vivo at 2.5 mg/kg came to 60%.
For `CCCCCCn1c(C)c(C(=O)NC2CCN(CCc3ccccc3)CC2)c2cc(O)ccc21` [Example 10, 1-Hexyl-5-hydroxy-2-methyl-N-(1-(2-phenylethyl)-4-piperidyl)indole-3-carboxamide hydrochloride monohydrate], in that order: 20% and 100%.
Turning to `Cc1c(C(=O)NC2CCN(CCc3ccccc3)CC2)c2cc(O)ccc2n1C1CCCCC1` [Example 12, 1-Cyclohexyl-5-hydroxy-2-methyl-N-(1-(2-phenylethyl)-4-piperidyl)indole-3-carboxamide hydrochloride hemihydrate], the pIC50 against 5-lipoxygenase is 5.77.
At 5-lipoxygenase, `Cc1c(C(=O)NC2CCN(CCc3ccccc3)CC2)c2cc(O)ccc2n1CCc1ccccc1` [Example 16, 5-Hydroxy-2-methyl-1-(2-phenylethyl)-N-(1-(2-phenylethyl)-4-piperidyl)indole-3-carboxamide hydrochloride] had a negative-log IC50 (pIC50) of 6.00. Also, the inhibition in vivo at 2.5 mg/kg in the series on histamine induced asthma (1 h) came out at 100%.
Regarding `Cc1c(C(=O)NC2CCN(CCc3ccccc3)CC2)c2cc(O)ccc2n1-c1ccc(Cl)cc1` [Example 24, 1-(p-Chlorophenyl)-5-hydroxy-2-methyl-N-(1-(2-phenylethyl)-4-piperidyl)indole-3-carboxamide hydrochloride], at 5-lipoxygenase (setting [5]), the pIC50 was 5.38.
On to `Cc1c(C(=O)NC2CCN(CCCc3ccccc3)CC2)c2cc(O)ccc2n1-c1ccccc1` [Example 26, 5-Hydroxy-2-methyl-1-phenyl-N-(1-(3-phenylpropyl)-4-piperidyl)indole-3-carboxamide hydrochloride monohydrate], for which the negative logarithm of the IC50 (pIC50) at 5-lipoxygenase (setting [5]) was 5.60.
For `Cc1c(C(=O)NC2CCN(CCc3ccccc3)CC2)c2cc(O)ccc2n1-c1ccccc1` [Example 29, 5-Hydroxy-2-methyl-N-(1-(2-phenylethyl)-4-piperidyl)-1-phenylindole-3-carboxamide hydrochloride], the pIC50 at 5-lipoxygenase (setting [5]) is 5.85. In addition, the inhibition in vivo at 0.5 mg/kg in the series on histamine induced asthma (0.5 mg/kg, p.o., 1 hour before histamine aerosol, guinea pigs) was 33%.
For the molecule `CCCCn1c(C)c(C(=O)NC2CCN(CCOc3ccccc3)CC2)c2cc(O)ccc21` [Example 31, 1-Butyl-5-hydroxy-2-methyl-N-(1-(2-phenoxyethyl)-4-piperidyl)indole-3-carboxamide], the negative-log IC50 (pIC50) on 5-lipoxygenase is 6.59.
`CCCCC/C=C\C\C=C/C=C/C=C/[C@@H](SC[C@H](NC(=O)CC[C@H](N)C(=O)O)C(=O)NCC(=O)O)[C@@H](O)CCCC(=O)O` [LTC4]: the bronchoconstriction activity entry in series [4] is “strong bronchoconstriction activity”.
Turning to `CCCCC/C=C\C\C=C/C=C/C=C/[C@@H](SC[C@H](N)C(=O)NCC(=O)O)[C@@H](O)CCCC(=O)O` [LTD4], in series [4], the bronchoconstriction activity result is recorded as “strong bronchoconstriction activity”.
For `CCCCC/C=C\C\C=C/C=C/C=C/[C@@H](SC[C@H](N)C(=O)O)[C@@H](O)CCCC(=O)O` [LTE4], the bronchoconstriction activity result in series [4] is reported as “strong bronchoconstriction activity”.
Take `O=C(NC1CCN(CCc2c[nH]c3ccccc23)CC1)c1ccccc1` [indoramin, 3-[2-(4-benzamidopiperid-1-yl)ethyl]indole]: the hypotensive effect entry in series [1] was “possesses hypotensive activity”.
